The record followed here is article PMC5949855 (2015).

In experiment [1] the test system is HT21 (DNA, G4) GGGTTAGGGTTAGGGTTAGGG
Description: UV melting. Particulars: NH4+ 30 mM, compound concentration not given in material.

Experiment [2] shares this test system. Description: ITC. Particulars: for K a1: two-event model, high-affinity site.
Experiment [3] relates to L-HT21 (L-DNA, G4, all nucleotides L-DNA (enantiomer of HT21)) GGGTTAGGGTTAGGGTTAGGG
In words: CD. Particulars: NH4+ 30 mM; mirror image CD of the HT21 complex.

Experiment [4] has as its system HT21 (DNA, G4) GGGTTAGGGTTAGGGTTAGGG
Description: UV melting, 295 nm. Conditions: no monovalent cation added; compound concentration not given in material.

[5] abbreviates: value given for CuL1-CuL4 together.
[6] abbreviates: NH4+ 30 mM, 20 mM MOPS pH 6.5, 298 K.

For the compound `Cc1ccc(-c2cc(-c3ccccn3)nc(-c3ccccn3)c2)cc1.O=[N+]([O-])[O-].O=[N+]([O-])[O-].[Cu+2]`, the ΔTm in experiment [1] is ~ 10 °C. Moreover, in experiment [2] (NH4+ 30 mM, 20 mM MOPS pH 6.5, 298 K, one-event binding model), the Ka entry was “(2.0 ± 0.5) × 10^5 M^–1”.

On to `O=[N+]([O-])[O-].O=[N+]([O-])[O-].[Cu+2].c1ccc(-c2cccc(-c3ccccn3)n2)nc1`, for which the ΔTm in experiment [1] is ~ 5 °C. In experiment [2] (NH4+ 30 mM, 20 mM MOPS pH 6.5, 298 K, affinity too low to be determined), the binding entry is “weak”.

With `O=[N+]([O-])[O-].O=[N+]([O-])[O-].[Cu+2].c1ccc(-c2cc(-c3ccc(OCCN4CCOCC4)cc3)cc(-c3ccccn3)n2)nc1`, in experiment [1] (setting [5]), the ΔTm was ~ 20 °C. For the same compound, the “K a1” value in experiment [2] (setting [6]) is on record as “(1.7 ± 0.3) × 10^7 M^–1”.

Take `CN(C)CCOc1ccc(-c2cc(-c3ccccn3)nc(-c3ccccn3)c2)cc1.O=[N+]([O-])[O-].O=[N+]([O-])[O-].[Cu+2]`: the ΔTm in experiment [1] (setting [5]) is ~ 20 °C. Further, the “K a1” value in experiment [2] (setting [6]) is “(1.7 ± 0.3) × 10^7 M^–1”.

In the case of `O=[N+]([O-])[O-].O=[N+]([O-])[O-].[Cu+2].c1ccc(-c2cc(-c3ccc(OCCN4CCCC4)cc3)cc(-c3ccccn3)n2)nc1`, the binding result in experiment [3] is listed as “yes”. The values for the ΔTm in experiment [1] (setting [5]) and in experiment [4] were ~ 20 °C and ~ 13 °C, respectively. Also, in experiment [2] (setting [6]), the “K a1” value is given as “(1.7 ± 0.2) × 10^7 M^–1”. In experiment [2] (no monovalent cation added, 298 K, three-event model, first (strongest) event), the Ka entry was “(1.5±0.6)E8 M^-1”.

Take `O=[N+]([O-])[O-].O=[N+]([O-])[O-].[Cu+2].c1ccc(-c2cc(-c3ccc(OCCN4CCCCC4)cc3)cc(-c3ccccn3)n2)nc1`: the ΔTm in experiment [1] (setting [5]) was ~ 20 °C. Moreover, the “K a1” value in experiment [2] (setting [6]) is on record as “(1.7 ± 0.3) × 10^7 M^–1”.
